Laboratory results published in patent publication US6153604A, “Therapeutic substituted guanidines” (Cambridge NeuroScience, Inc., priority 1995, dated 2000).
Counter-ions that a name gives are not always drawn.

How the values were obtained:
[1] = tested on: NMDA-induced excitotoxic damage to the central nervous system; experiment: In vivo assay for protection against NMDA-induced excitotoxic damage to the central nervous system; design: species or system rat (Day 7 neonatal); conditions: Rattus norvegicus, ip, 120 h, intraperitoneal; for ED80: 15 minutes after intrastriatal NMDA, neonatal rats, read-out: ED80 (dose that provides 80% of the maximum protection)
Description: In vivo assay for protection against NMDA-induced excitotoxic damage to the central nervous system.
The in vivo potency of compounds of the present invention is exemplified by data summarized in Table II and obtained pursuant to the following protocol. Day 7 neonatal rats were anesthetized with metophane inhalation anesthetic for 4-6 minutes, inserted into a stereotaxic apparatus and injected intrastriatally with 0.5 μl of 50 mM NMDA (N-methyl-D-aspartate). 15 minutes after the NMDA injection, the rat pups were injected intraperitoneally with 10, 30 or 60 μmol/kg of the NMDA antagonist of the structure specified in Table II Animals were returned to their mother and watched for signs of distress (e.g., respiratory depression). After five days, the animals were anesthetized with CO2 and then decapitated; their brains were removed and weighed to determine the degree of neuroprotection. Because NMDA injection results in a retardation of brain growth (including necrosis), effects can be measured gravimetrically in terms of the weights of injected and non-injected hemispheres. Two groups of rat pups were used at each of three doses of a compound to generate a neuroprotection dose-response curve. The chemical structure of each of the tested compounds is specified below with the general formula of the compounds shown at the top of Table II with particular substituent groups specified within that Table. Table II discloses 1) the ED80 for each tested compound, i.e., the dose of a compound that provides 80% of the maximum protection against damage to the central nervous system; and 2) the percent (%) maximum protection against damage to the central nervous system provided by the indicated dose expressed as μmol per kilogram bodyweight of the test subject.

[2] = tested on: rat model of Korsakoff's disease; conditions: pretreatment of animals; cited from earlier work

Cc1ccc(Cl)c(NC(=N)Nc2cccc3ccccc23)c1 [Cmpd. No. 10 (Table II), N-(1-Naphthyl)-N'(2-chloro-5-methylphenyl)guanidine hydrochloride]
inhibition in vivo at 60 µmol/kg ([1]; dose 60 μmol/kg, read-out: % maximum protection per dose): 96.4% | ED80 [1]: 45.8 µmol/kg

CCc1ccc(Cl)c(NC(=N)Nc2cccc3cccnc23)c1 [Cmpd. No. 11 (Table II), N-(8-Quinolinyl)-N'-(2-chloro-5-ethylphenyl)guanidine hydrochloride]
inhibition in vivo at 30 µmol/kg ([1]; dose 30 μmol/kg, read-out: % maximum protection per dose): 94.5% | ED80 [1]: 14.2 µmol/kg

C[C@]12N[C@H](Cc3ccccc31)c1ccccc12 [MK-801, (+)-5-methyl-10,11-dihydro-5H-dibenzo[a,d]cycloheptene-5,10-imine]
extent of cell loss, hemorrhages and amino acid changes [2]: markedly attenuates the extent of cell loss, hemorrhages and amino acid changes
